≈ marks a conversion by molar mass, not a printed value.
What was measured:
[1] = Solubility determination in oil (Table 10); details: thermodynamic from solid; for solubility thermodynamic: water, Equilibrium solubility: Water
Protocol: A known amount of test substance (˜40 mg) was weighed into the vial, 100 μL of oil was added and heated to 60° C. and then system was slurried to reach equilibrium. […] Extra oil was added into the vial once compound precipitated out and then the system was re-equilibrated at 1000 rpm at room temperature (25° C.). Final concentration was determined by HPLC method as described below in Table 6a and 6b.

[2] = Dog pharmacokinetic studies, deep intramuscular administration; format: in vivo, Beagle dogs; details: IM 48 mg/kg, Sesame oil + 1% Benzyl Alcohol; for AUC(0-inf) / half-life: Beagle, dog, plasma, im, 48 mg/kg; for AUC(0-inf): read-out: AUC0-inf (ng · h/mL) prodrug; for half-life: read-out: Half-life t1/2 (hour) prodrug (converted)
Protocol: The purpose of this study is to determine the pharmacokinetics of test compounds in plasma, following deep intramuscular administration to Beagle dogs (n=3, unless otherwise specified).
The dose formulation (concentration—400 mg base equivalents/ml in sesame oil+1% benzyl alcohol, unless otherwise specified) was administered via deep intramuscularly (unless otherwise specified). The injection vehicle was also dosed via deep intramuscular route (unless otherwise specified) on contralateral site of each animal at study initiation. The animals were sedated with Propofol at 6 mg/kg via IV administration. Following sedation hair was carefully removed from around the injection site and the area gently cleaned. Care will be taken to avoid irritating skin during shaving and cleaning the injection site. Then dogs will be dosed with deep IM administration. At least 2.5 cm depth from the surface into the central aspect of the quadriceps or biceps femoris muscle, by angling the needle toward the femur. If the needle hits the femur, simply draws back slightly and then inject. The dose volume will be determined by the animals' body weight collected on the morning of dosing day. For repeated administration, the injection sites may be rotated to minimize tissue injury.
Blood samples were collected from a peripheral vessel from restrained, non-sedated animals per sampling time point.
Approximately 0.8 mL blood will be collected at each time point.
Each collected blood sample was centrifuged for 4 minutes at 4° C. and 10000 rpm for plasma collection. Plasma was collected and transferred into a pre-labeled PP tube in dry ice at each time point and precipitated immediately using ACN at a ratio of 1:4 (plasma:ACN).
LC-MS/MS methods for the quantitative determination of test compound in biological matrix were developed. […] The sample analysis was performed concurrently with a set of calibration standards and two sets of QC samples using the LC-MS/MS method.
Plasma concentration versus time data was analyzed by non-compartmental approaches using the Phoenix WinNonlin 6.3 software program. Cmax, Tmax, T1/2, AUC(0-t), AUC(0-inf), MRT(0-t), MRT(0-inf) and graphs of plasma concentration versus time profile were prepared.

[3] = Polymorph screening of solid state drug substances (Table 23); format: physicochemical; details: stirred 50 °C 72 hours; for Dry method and appearance: dried solid
[4] = 25 °C, oil or lipid, Solubility by volumetric flask method: Cottonseed oil, volumetric flask method, Heating Temp. 60 °C, Obs. Temp. 25 °C
[5] = 25 °C, oil or lipid, Solubility by volumetric flask method: Sesame oil, volumetric flask method, Heating Temp. 60 °C, Obs. Temp. 25 °C
[6] = 40 °C, section 'Solubility by volumetric flask method', Heating Temp. 40 °C, Obs. Temp. 40 °C
[7] = 40 °C, oil or lipid, Approximate Solubility in Excipient: Cottonseed oil, Heating Temp. 60 °C, Obs. Temp. 40 °C
[8] = 40 °C, oil or lipid, Approximate Solubility in Excipient: Sesame oil, Heating Temp. 60 °C, Obs. Temp. 40 °C
[9] = 40 °C, organic solvent or mixture, Approximate Solubility in Excipient: Ethanol, Heating Temp. 60 °C, Obs. Temp. 40 °C
[10] = 40 °C, Heating Temp. 60 °C, Obs. Temp. 40 °C
[11] = 25 °C, oil or lipid, Approximate Solubility in Excipient: Cottonseed oil, Heating Temp. 60 °C, Obs. Temp. 25 °C
[12] = 25 °C, oil or lipid, Approximate Solubility in Excipient: Sesame oil, Heating Temp. 60 °C, Obs. Temp. 25 °C
[13] = 40 °C, Heating Temp. 40 °C, Obs. Temp. 40 °C

Row | Compound | AUC(0-inf) [2] [ng·h/mL] | half-life [2] [h] | XRPD results (Dried) ([3]; Acetone) | Dry method and appearance ([3]; Acetone) | XRPD results (Dried) ([3]; EtOAc) | Dry method and appearance ([3]; EtOAc) | XRPD results (Dried) ([3]; Heptane) | Dry method and appearance ([3]; Heptane) | XRPD results (Dried) ([3]; Isopropanol) | Dry method and appearance ([3]; Isopropanol) | XRPD results (Dried) ([3]; MTBE) | Dry method and appearance ([3]; MTBE) | solubility [1, 7] [mg/mL] | solubility [1, 8] [mg/mL] | solubility thermodynamic [1, 10] [µg/mL] | further results
1 | CCCCCCCCCCCOC(=O)OCOc1ccc2c3c1O[C@H]1C(=O)CC[C@@]4(O)C(C2)N(CC2CC2)CC[C@]314 [Compound 4, (((4aS,7aR,12bS)-3-(cyclopropylmethyl)-4a-hydroxy-7-oxo-2,3,4,4a,5,6,7,7a-octahydro-1H-4,12-methanobenzofuro[3,2-e]isoquinolin-9-yl)oxy)methyl undecyl carbonate] | 829 |  |  |  |  |  |  |  |  |  |  |  |  |  |  | solubility [1, 4]: > 395 mg/mL; solubility [1, 5]: > 400 mg/mL; solubility thermodynamic [1, 6]: < 1 µg/mL
2 | C=C1CC[C@@]2(O)C3Cc4ccc(OCOC(=O)OCCCCCCCC/C=C/CCCCCCCC)c5c4[C@@]2(CCN3CC2CC2)[C@H]1O5 [Compound 1, (((4aS,7aS,12bS)-3-(cyclopropylmethyl)-4a-hydroxy-7-methylene-2,3,4,4a,5,6,7,7a-octahydro-1H-4,12-methanobenzofuro[3,2-e]isoquinolin-9-yl)oxy)methyl ((E)-octadec-9-en-1-yl) carbonate] | 1040 | 261 |  |  |  |  |  |  |  |  |  |  |  |  |  | 
3 | C=C1CC[C@@]2(O)C3Cc4ccc(OCOC(=O)OCCCCCCCCCC)c5c4[C@@]2(CCN3CC2CC2)[C@H]1O5 [Compound 35, (((4aS,7aS,12bS)-3-(cyclopropylmethyl)-4a-hydroxy-7-methylene-2,3,4,4a,5,6,7,7a-octahydro-1H-4,12-methanobenzofuro[3,2-e]isoquinolin-9-yl)oxy)methyl decyl carbonate] |  | 70 |  |  |  |  |  |  |  |  |  |  |  |  |  | AUC0-inf (ng · h/mL) nalmefene or naltrexone [2]: None; AUC0-inf (ng · h/mL) prodrug [2]: None
4 | CCCCCCCCCCCCCCCCOC(=O)Oc1ccc2c3c1O[C@H]1C(=O)CC[C@@]4(O)C(C2)N(CC2CC2)CC[C@]314 [Compound 21, (4aS,7aR,12bS)-3-(cyclopropylmethyl)-4a-hydroxy-7-oxo-2,3,4,4a,5,6,7,7a-octahydro-1H-4,12-methanobenzofuro[3,2-e]isoquinolin-9-yl hexadecyl carbonate] |  |  | Pattern A | Evaporation/white powder | Pattern A | Evaporation/white powder | Pattern A | Evaporation/white powder | Pattern A | Evaporation/white powder | Pattern A | Evaporation/white powder | 101 to 135 (≈ 166 to 221 mM) | 101 to 134 (≈ 166 to 221 mM) | 0.6 (≈ 0.000984 mM) | solubility [1, 9]: 50 to 100 mg/mL (≈ 82 to 164 mM)
5 | CCCCCCCCCCCCCCCC(=O)Oc1ccc2c3c1O[C@H]1C(=O)CC[C@@]4(O)C(C2)N(CC2CC2)CC[C@]314 [Compound 55, (4aS,7aR,12bS)-3-(cyclopropylmethyl)-4a-hydroxy-7-oxo-2,3,4,4a,5,6,7,7a-octahydro-1H-4,12-methanobenzofuro[3,2-e]isoquinolin-9-yl palmitate] |  |  | Pattern B | Evaporation/white powder | Pattern B | Evaporation/white powder | Pattern B | Evaporation/white powder | Pattern B | Evaporation/white powder | Pattern B | Evaporation/white powder | > 400 | > 395 | 6.6 (≈ 0.0114 mM) | solubility at 24 h [1, 11]: < 50 mg/mL; solubility at 24 h [1, 12]: < 50 mg/mL; solubility [1, 9]: > 401 mg/mL; solubility thermodynamic ([1]; after slurry in EtOAc, temperatures N/A): < 0.5 µg/mL
6 | C=C1CC[C@@]2(O)C3Cc4ccc(OC(=O)CCCCCCCCCCCCCCCCCCC)c5c4[C@@]2(CCN3CC2CC2)[C@H]1O5 [Compound 16, (4aS,7aS,12bS)-3-(cyclopropylmethyl)-4a-hydroxy-7-methylene-2,3,4,4a,5,6,7,7a-octahydro-1H-4,12-methanobenzofuro[3,2-e]isoquinolin-9-yl icosanoate] |  |  | Pattern A | Evaporation/white powder | Pattern A | Evaporation/white powder | Pattern A | Centrifugation/white powder | Pattern A | Centrifugation/white powder | Pattern A | Evaporation/white powder | 201 to 403 (≈ 317 to 636 mM) | 202 to 404 (≈ 319 to 637 mM) | 11 (≈ 0.0174 mM) | solubility ([1]; 40 °C, oil or lipid, Approximate Solubility in Excipient: Cottonseed oil, Heating Temp. 40 °C, Obs. Temp. 40 °C): 57 to 67 mg/mL (≈ 89.9 to 106 mM); solubility ([1]; 40 °C, oil or lipid, Approximate Solubility in Excipient: Sesame oil, Heating Temp. 40 °C, Obs. Temp. 40 °C): 68 to 81 mg/mL (≈ 107 to 128 mM); solubility ([1]; 40 °C, organic solvent or mixture, Approximate Solubility in Excipient: Ethanol, Heating Temp. 40 °C, Obs. Temp. 40 °C): < 25 mg/mL; solubility thermodynamic [1, 13]: 206 µg/mL (≈ 0.325 mM)
7 | C=C1CC[C@@]2(O)C3Cc4ccc(OC(=O)OCCCCCCCCCCC)c5c4[C@@]2(CCN3CC2CC2)[C@H]1O5 [Compound 3, (4aS,7aS,12bS)-3-(cyclopropylmethyl)-4a-hydroxy-7-methylene-2,3,4,4a,5,6,7,7a-octahydro-1H-4,12-methanobenzofuro[3,2-e]isoquinolin-9-yl undecyl carbonate] | 360 | 63.1 |  |  |  |  |  |  |  |  |  |  |  |  |  | solubility [1, 4]: > 399 mg/mL; solubility [1, 5]: > 401 mg/mL; solubility thermodynamic [1, 6]: < 1 µg/mL
8 | CCCCCCCC/C=C/CCCCCCCCOC(=O)OCOc1ccc2c3c1O[C@H]1C(=O)CC[C@@]4(O)C(C2)N(CC2CC2)CC[C@]314 [Compound 7, (((4aS,7aR,12bS)-3-(cyclopropylmethyl)-4a-hydroxy-7-oxo-2,3,4,4a,5,6,7,7a-octahydro-1H-4,12-methanobenzofuro[3,2-e]isoquinolin-9-yl)oxy)methyl ((E)-octadec-9-en-1-yl) carbonate] | 610 |  |  |  |  |  |  |  |  |  |  |  |  |  |  | 
9 | C=C1CC[C@@]2(O)C3Cc4ccc(OC(=O)OCCCCCCCCCCCCCC)c5c4[C@@]2(CCN3CC2CC2)[C@H]1O5 [Compound 31, (4aS,7aS,12bS)-3-(cyclopropylmethyl)-4a-hydroxy-7-methylene-2,3,4,4a,5,6,7,7a-octahydro-1H-4,12-methanobenzofuro[3,2-e]isoquinolin-9-yl tetradecyl carbonate] |  |  | Pattern A | Evaporation/white powder | Pattern A | Evaporation/white powder | Pattern A | Evaporation/white powder | Pattern A | Evaporation/white powder | Pattern A | Evaporation/white powder |  |  |  | solubility at 24 h [1, 11]: > 417 mg/mL; solubility at 24 h [1, 12]: > 414 mg/mL; solubility thermodynamic [1, 13]: < 1 µg/mL

From patent publication US20190308988A1, “OPIOID RECEPTOR ANTAGONIST PRODRUGS” (Nirsum Laboratories, Inc., priority 2017, published 2019)
